Assay results reported in patent US5763442A, “Anti-parasitic activity” (Universiteit Van Pretoria, priority 1995, dated 1998).

Legend:
[1] = system: Plasmodium falciparum (RB-1); assay: Microscopic parasitaemia, chloroquine resistant strain RB-1 (reversal of chloroquine resistance); type: cell-based; settings: for Percentage red blood cells infected with P. falciparum (RB-1): 24 h
Description: (§1) The activity of riminophenazines to reverse chloroquine resistance in Plasmodium falciparum was tested in the following manner:
(§2) A preliminary series of experiments were carried out using two laboratory strains of P. falciparum (RB-1 and Fab-9). These strains were obtained from the Medical Research Council, Durban, where they were characterised as being either mildly resistant or sensitive to chloroquine. The isolates were maintained in suspension culture in known manner (as described by Freese J A, Markus M B and Golenser J, 1991; Bulletin of the World Health Organization 69: 707-712).
(§3) Infected erythrocytes were diluted with human O-positive red blood cells to a parasitaemia of 0.2-0.9% and suspended to 3% in RPMI containing 44 mg/l hypoxanthine and 10% human type O serum. Aliquots (100 μl) of the suspension were dispensed into the wells of 96-well microtitre plates. To these suspensions 100 μl of the medium were added containing either chloroquine or B669 alone or in combination. The final drug concentrations were 31, 62, 125, 250 500 and 1000 nM for chloroquine and 0.125, 0.25, 0.5 and 1.0 μg/ml for B669. Relevant solvent controls were included. The plates were incubated for 24 hours at 38° C. in a desiccator gassed with 5% O2, 5% CO2 and 90% N2. Thin blood smears were prepared from each well, stained with Giemsa stain and the percentage of red blood cells infected by at least one parasite determined microscopically.

[2] = system: Plasmodium falciparum (RB-9); assay: 3H-hypoxanthine uptake, chloroquine resistant strain (RB-9 [sic]); type: cell-based; settings: for PERCENTAGE INHIBITION (3H-hypoxanthine uptake): RB-9 (so in the source)
Description: The following experiment was done to confirm previous results which were obtained microscopically and details of which are set out in Example 1.
For this experiment the same two strains of P. falciparum, as used in Example 1 (RB-1 and Fab-9) were again used. Infected erythrocytes were diluted with human O-positive red blood cells to a parasitaemia of 0.2-0.9% and suspended to 3% in RPMI containing 44 mg/l hypxanthine and 10% human type serum. Aliquots (100 μl) of the suspension were dispensed into the wells of 96-well microtitre plates. To these suspensions 100 μl of the medium were added containing either chloroquine or B669 alone or a combination of chloroquine and B669. Relevant solvent controls were included. Negative control wells were also included containing uninfected red blood cells. The plates were incubated at 38° C. in a desiccator gassed with 5% O2, 5% CO2 and 90% N2. After 24 hours 100 μl culture medium of each well was replaced with […] of hypoxathine--free medium containing 10% human serum and 0,5μ Ci^3 H-hypoxanthine and incubated for a further 18 hours. The contents of the wells were then harvested on to glass fibre filters. The filters were washed with distilled water, dried, haemoglobin dissolved in a sodium bicarbonate solution and placed in scintillation vials containing 4 ml scintillation fluid and counted for 5 min in a liquid scintillation counter.
The percentage inhibition was calculated as follows: [formula] where CPM was the mean of two values of counts per minute for each treatment.

[3] = system: Plasmodium falciparum (Fab-9); assay: Microscopic parasitaemia, chloroquine sensitive strain Fab-9 (reversal of chloroquine resistance); type: cell-based; settings: for Percentage red blood cells infected with P. falciparum (Fab-9): 24 h
Description: as §1, §2, §3

P. falciparum (RB-1) = assay: Direct antimalarial activity, flow cytometry, strain RB-1; type: cell-based, Plasmodium falciparum
Description: To investigate the direct antimalarial activity of the riminophenazines B669, B4100, B4103, B4112, B4121, B4158 and B4169 against a laboratory strain of P. falciparum the following experiment was done:
A laboratory strain of P. falciparum (RB-1; obtained from Dr B L Sharp, National Malaria Research Programme, MRC, Durban) was maintained.
For these experiments malaria cultures of haematocrit 5.0% and initial parasitemia 2.0% were used. The malaria infected erythrocytes (ring stage) were incubated in microtitre plates with serial dilutions of B669, B4100, B4103, B4112, B4121, B4158 and B4169 (0.125-2 μg/ml) for 48 hours and processed for analysis on the flow cytometer as described in Example 3.

[4] = system: Plasmodium falciparum (Fab-9); assay: 3H-hypoxanthine uptake, chloroquine sensitive strain Fab-9; type: cell-based; settings: read-out: PERCENTAGE INHIBITION (3H-hypoxanthine uptake)
[5] = B669 0.125 μg/ml + chloroquine 500 nM
[6] = B669 0.25 μg/ml + chloroquine 31 nM
[7] = B669 0.25 μg/ml + chloroquine 500 nM, *parasites morphologically abnormal
[8] = B669 0.25 μg/ml + chloroquine 1000 nM
[9] = B669 0.5 μg/ml + chloroquine 1000 nM
[10] = B669 1.0 μg/ml + chloroquine 1000 nM
[11] = B669 1.0 μg/ml alone, *parasites morphologically abnormal
[12] = Plasmodium falciparum, read-out: PERCENTAGE INHIBITION (3H-hypoxanthine uptake)
[13] = B669 0.125 μg/ml + chloroquine 31 nM
[14] = B669 0.5 μg/ml + chloroquine 125 nM
[15] = B669 1.0 μg/ml + chloroquine 31 nM
[16] = B669 1.0 μg/ml + chloroquine 125 nM

c1ccc(Nc2cc3nc4ccccc4n(-c4ccccc4)c-3cc2=NC2CCCCC2)cc1 [Compound B669, N,5-bis(phenyl)-3,5-dihydro-3-(cyclohexylimino)-2-phenazinamine]
increase of sensitivity to chloroquine, chloroquine resistant strain ([1]; 125 nM chloroquine, 0.125 μg/ml B669): up to two fold | increase of sensitivity to chloroquine, chloroquine resistant strain ([1]; 500 nM chloroquine, 0.25 μg/ml B669): up to three fold | Percentage red blood cells infected with P. falciparum (RB-1) ([1]; B669 0.125 μg/ml + chloroquine 125 nM, *parasites morphologically abnormal): 1.6% | Percentage red blood cells infected with P. falciparum (RB-1) [1, 5]: 1.3% | Percentage red blood cells infected with P. falciparum (RB-1) ([1]; B669 0.125 μg/ml alone): 3.6% | Percentage red blood cells infected with P. falciparum (RB-1) [1, 6]: 3.9% | Percentage red blood cells infected with P. falciparum (RB-1) ([1]; B669 0.25 μg/ml + chloroquine 62 nM, *parasites morphologically abnormal): 2.8% | Percentage red blood cells infected with P. falciparum (RB-1) ([1]; B669 0.25 μg/ml + chloroquine 125 nM, *parasites morphologically abnormal): 1.9% | Percentage red blood cells infected with P. falciparum (RB-1) [1, 7]: 0.9% | Percentage red blood cells infected with P. falciparum (RB-1) [1, 8]: 0% | Percentage red blood cells infected with P. falciparum (RB-1) ([1]; B669 0.25 μg/ml alone): 4.0% | Percentage red blood cells infected with P. falciparum (RB-1) ([1]; B669 0.5 μg/ml + chloroquine 250 nM, *parasites morphologically abnormal): 1.4% | Percentage red blood cells infected with P. falciparum (RB-1) [1, 9]: 0.1% | Percentage red blood cells infected with P. falciparum (RB-1) ([1]; B669 0.5 μg/ml alone): 3.2% | Percentage red blood cells infected with P. falciparum (RB-1) ([1]; B669 1.0 μg/ml + chloroquine 31 nM, *parasites morphologically abnormal): 2.6% | Percentage red blood cells infected with P. falciparum (RB-1) ([1]; B669 1.0 μg/ml + chloroquine 250 nM, *parasites morphologically abnormal): 0.1% | Percentage red blood cells infected with P. falciparum (RB-1) [1, 10]: 0% | Percentage red blood cells infected with P. falciparum (RB-1) [1, 11]: 2.6% | direct effect on parasite morphology ([1]; B669 alone 1.0 μg/ml): morphological deterioration of the parasites was observed | percentage parasitaemia versus untreated control systems ([1]; B669 alone 1.0 μg/ml): did not differ from the untreated control systems | increase of sensitivity to chloroquine, chloroquine resistant strain ([2]; 250 nM chloroquine, 0.125-0.5 μg/ml B669): up to three fold | increase of sensitivity to chloroquine, chloroquine resistant strain ([2]; 125 μM (so in the source) chloroquine, 0.5 and 1.0 μg/ml B669): up to ten fold | inhibition at 0.125 µg/mL [2, 12]: 0% | inhibition at 0.25 µg/mL [2, 12]: 0% | inhibition at 0.5 µg/mL [2, 12]: 0% | inhibition at 1 µg/mL [2, 12]: 0% | PERCENTAGE INHIBITION (3H-hypoxanthine uptake) [2, 13]: 15.2% | PERCENTAGE INHIBITION (3H-hypoxanthine uptake) ([2]; B669 0.125 μg/ml + chloroquine 62 nM): 12.2% | PERCENTAGE INHIBITION (3H-hypoxanthine uptake) ([2]; B669 0.125 μg/ml + chloroquine 250 nM): 100% | PERCENTAGE INHIBITION (3H-hypoxanthine uptake) [2, 5]: 100% | PERCENTAGE INHIBITION (3H-hypoxanthine uptake) ([2]; B669 0.125 μg/ml + chloroquine 1000 nM): 100% | PERCENTAGE INHIBITION (3H-hypoxanthine uptake) ([2]; B669 0.25 μg/ml + chloroquine 62 nM): 26.4% | PERCENTAGE INHIBITION (3H-hypoxanthine uptake) ([2]; B669 0.25 μg/ml + chloroquine 250 nM): 100% | PERCENTAGE INHIBITION (3H-hypoxanthine uptake) ([2]; B669 0.25 μg/ml + chloroquine 500 nM): 98.8% | PERCENTAGE INHIBITION (3H-hypoxanthine uptake) [2, 8]: 95% | PERCENTAGE INHIBITION (3H-hypoxanthine uptake) ([2]; B669 0.5 μg/ml + chloroquine 62 nM): 16.6% | PERCENTAGE INHIBITION (3H-hypoxanthine uptake) [2, 14]: 92% | PERCENTAGE INHIBITION (3H-hypoxanthine uptake) ([2]; B669 0.5 μg/ml + chloroquine 250 nM): 95% | PERCENTAGE INHIBITION (3H-hypoxanthine uptake) ([2]; B669 0.5 μg/ml + chloroquine 500 nM): 100% | PERCENTAGE INHIBITION (3H-hypoxanthine uptake) [2, 9]: 100% | PERCENTAGE INHIBITION (3H-hypoxanthine uptake) [2, 15]: 58.6% | PERCENTAGE INHIBITION (3H-hypoxanthine uptake) ([2]; B669 1.0 μg/ml + chloroquine 62 nM): 100% | PERCENTAGE INHIBITION (3H-hypoxanthine uptake) [2, 16]: 100% | PERCENTAGE INHIBITION (3H-hypoxanthine uptake) ([2]; B669 1.0 μg/ml + chloroquine 250 nM): 100% | PERCENTAGE INHIBITION (3H-hypoxanthine uptake) ([2]; B669 1.0 μg/ml + chloroquine 500 nM): 100% | PERCENTAGE INHIBITION (3H-hypoxanthine uptake) [2, 10]: 100% | effects of the experimental drug at low chloroquine concentrations ([2]; chloroquine 31 and 62 nM): Effects of the experimental drug was also seen | Percentage red blood cells infected with P. falciparum (Fab-9) [3, 13]: 3.9% | Percentage red blood cells infected with P. falciparum (Fab-9) [3, 5]: 0.9% | Percentage red blood cells infected with P. falciparum (Fab-9) ([3]; B669 0.125 μg/ml alone): 4.0% | Percentage red blood cells infected with P. falciparum (Fab-9) [3, 6]: 3.1% | Percentage red blood cells infected with P. falciparum (Fab-9) ([3]; B669 0.25 μg/ml + chloroquine 125 nM): 2.9% | Percentage red blood cells infected with P. falciparum (Fab-9) [3, 7]: 0.1% | Percentage red blood cells infected with P. falciparum (Fab-9) ([3]; B669 0.25 μg/ml alone): 4.4% | Percentage red blood cells infected with P. falciparum (Fab-9) ([3]; B669 0.5 μg/ml + chloroquine 31 nM, *parasites morphologically abnormal): 2.7% | Percentage red blood cells infected with P. falciparum (Fab-9) [3, 14]: 3.0% | Percentage red blood cells infected with P. falciparum (Fab-9) ([3]; B669 0.5 μg/ml + chloroquine 500 nM, *parasites morphologically abnormal): 0.1% | Percentage red blood cells infected with P. falciparum (Fab-9) ([3]; B669 0.5 μg/ml alone): 3.0% | Percentage red blood cells infected with P. falciparum (Fab-9) [3, 15]: 2.9% | Percentage red blood cells infected with P. falciparum (Fab-9) [3, 16]: 0.9% | Percentage red blood cells infected with P. falciparum (Fab-9) ([3]; B669 1.0 μg/ml + chloroquine 500 nM, *parasites morphologically abnormal): 0.1% | Percentage red blood cells infected with P. falciparum (Fab-9) [3, 11]: 4.1% | direct effect on parasite morphology ([3]; B669 alone 1.0 μg/ml): morphological deterioration of the parasites was observed | percentage parasitaemia versus untreated control systems ([3]; B669 alone 1.0 μg/ml): did not differ from the untreated control systems | effect on sensitivity of chloroquine sensitive strain to chloroquine ([3]; microscopy): did not increase the sensitivity | inhibition at 0.5 µg/mL (P. falciparum (RB-1); Plasmodium falciparum, 0.5 μg/ml, 48 h, FIG. 2, read-out: inhibition of growth of P. falciparum): > 50% | activity against the malaria microorganism Plasmodium falciparum (P. falciparum (RB-1); summary statement): good activity | inhibition at 0.125 µg/mL [4]: 29.8% | inhibition at 0.25 µg/mL [4]: 10.4% | inhibition at 0.5 µg/mL [4]: 41.7% | inhibition at 1 µg/mL [4]: 46.6%
